Data on 57 compounds can be found in PubChem BioAssay AID1645863 (Buhrlage Lab, Dana-Farber Cancer Institute and Novartis …, 2021).

The source made the active and inactive calls. No rule for the calls is given here.

Ubiquitin carboxyl-terminal hydrolase 10 (Homo sapiens), sequence (Q14694 whole entry, looked up): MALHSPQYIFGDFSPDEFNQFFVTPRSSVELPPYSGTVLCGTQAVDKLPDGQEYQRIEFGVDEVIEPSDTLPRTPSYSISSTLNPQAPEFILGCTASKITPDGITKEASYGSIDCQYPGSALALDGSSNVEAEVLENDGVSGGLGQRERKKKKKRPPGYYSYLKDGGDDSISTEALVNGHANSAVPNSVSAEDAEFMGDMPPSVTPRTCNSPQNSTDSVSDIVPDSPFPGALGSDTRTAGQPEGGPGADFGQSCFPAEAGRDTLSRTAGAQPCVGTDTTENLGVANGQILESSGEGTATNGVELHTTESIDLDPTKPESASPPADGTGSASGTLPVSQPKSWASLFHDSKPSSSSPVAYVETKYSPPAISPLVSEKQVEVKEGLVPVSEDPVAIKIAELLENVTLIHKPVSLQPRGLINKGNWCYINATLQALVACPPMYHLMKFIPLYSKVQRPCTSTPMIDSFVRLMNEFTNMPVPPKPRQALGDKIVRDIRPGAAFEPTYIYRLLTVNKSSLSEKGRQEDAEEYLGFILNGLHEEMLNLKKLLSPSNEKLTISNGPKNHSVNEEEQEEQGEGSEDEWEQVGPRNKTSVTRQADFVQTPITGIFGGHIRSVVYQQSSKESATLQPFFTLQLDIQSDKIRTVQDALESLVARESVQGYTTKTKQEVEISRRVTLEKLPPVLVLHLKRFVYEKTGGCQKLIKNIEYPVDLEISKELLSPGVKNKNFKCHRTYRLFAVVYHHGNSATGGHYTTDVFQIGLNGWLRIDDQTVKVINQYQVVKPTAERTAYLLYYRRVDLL

The experiment has as its target Ubiquitin carboxyl-terminal hydrolase 10 (Homo sapiens) (UniProt Q14694). As to the kind of experiment: primary hit verification, biochemical, ubiquitin-specific protease 10 deubiquitylase inhibitors, concentration-effect titration (AID 1645863).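 Also: potency values describe inhibition of USP10 cleavage of a fluorogenic ubiquitin substrate.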 The following applies: USP10 deubiquitinase enzymatic assay.
Regarding `O=C(CCCc1nnc2c(=O)n(-c3cccc(F)c3)ccn12)NCc1ccc(F)cc1`, the half-inhibitory concentration (IC50) (as a rule, the concentration needed to halve the response being measured) was 35.3 µM.

In the case of `Cc1ccc(-c2cc(=O)n(CC(=O)Nc3ccc(C(C)C)cc3)cn2)cc1`, the IC50 is > 40 µM (inactive).

As to `O=C(NC(Cc1ccccc1)c1nc2ccccc2[nH]1)C1CC1` (configuration not stated), the IC50 is > 40 µM (inactive).

For the compound `CCCCC/C=C/C=C/C(=O)OC1C(O)CC(c2ccc3c(c2O)C(=O)c2c(O)cc4cc(C)cc(O)c4c2C3=O)OC1C` (configuration not stated), the IC50 is > 40 µM (inactive).

As for `O=C(Nc1ccc(Cn2cnc(-c3nc(-c4ccccc4)no3)c2)cc1)c1ccccc1F`, the IC50 was > 40 µM (inactive).

On to `NC(=O)c1nc(-c2cccnc2)nc2c1[nH]c(=O)n2-c1ccc2c(c1)OCO2`, for which the IC50 was > 40 µM (inactive).

On to `O=C(Nc1cccc(-c2nc3ncccc3o2)c1)c1ccc([N+](=O)[O-])cc1`, for which the IC50 was > 40 µM (inactive).

As to `CCCCCCC1CCC(O)CC(O)CC(O)CC(O)CC(O)CC(O)/C(C)=C/C=C\C=C/C=C/C=C/[C@H](O)[C@@H](C)OC1=O` (some centres not stated), the IC50 was > 40 µM (inactive).

`COc1ccc(NC(=O)Cn2cc(C(=O)c3ccccc3)c(=O)c3cc(Cl)ccc32)cc1OC`: the IC50 is 22.8 µM.

With `NC(=O)C1(N2CCCCC2)CCN(c2ncc3c(=O)n(-c4ccccc4)c(=O)[nH]c3n2)CC1`, the IC50 is > 40 µM (inactive).

`Cc1noc(/C=C/Nc2cc(Cl)cc(Cl)c2)c1[N+](=O)[O-]`: the IC50 is > 40 µM (inactive).

On to `Cc1cc(NC(=O)CSc2ncc(-c3cccc([N+](=O)[O-])c3)n2-c2cccc(Cl)c2)no1`, for which the IC50 is > 40 µM (inactive).

On to `COc1cccc(-c2cc(C(=O)Nc3cc(C)n(Cc4ccc(Cl)cc4)n3)no2)c1`, for which the IC50 was > 40 µM (inactive).

As to `COc1ccc(Cl)cc1NC(=O)c1cc(-c2ccccn2)n[nH]1`, the half-maximal inhibitory concentration (IC50) was 9.33 µM.

Consider `O=C(Cn1ccc2ccn(Cc3ccccc3)c2c1=O)Nc1ccccc1Cl`, for which the IC50 was > 40 µM (inactive).

Consider `O=C(c1[nH]nc2c1COc1ccccc1-2)N1CCN(c2ccccn2)CC1`, for which the IC50 was > 40 µM (inactive).

For the compound `COc1ccc(-c2nc(SCC(=O)Oc3c(C)cccc3C)n3[nH]c(=O)cc3n2)cc1`, the IC50 is 9.85 µM.

As for `CC1=C(Cn2c3cccc(=O)c-3nc3ccccc32)CCC(C)(C)C1`, the IC50 is 5.79 µM.

For `COc1ccc(C(=O)C(C)OC(=O)c2cccc(S(=O)(=O)Nc3cc([N+](=O)[O-])ccc3OC)c2)c(OC)c1` (configuration not stated), the IC50 is > 40 µM (inactive).

Consider `Cc1ccc(C(=O)c2cn(CC(=O)Nc3ccc(F)c(F)c3)c3ccc(F)cc3c2=O)cc1`, for which the IC50 was > 40 µM (inactive).

`COc1cc2c(=O)n(CCC(=O)NC3CCCC3)c(=O)n(CC(=O)Nc3cccc(Cl)c3)c2cc1OC`: the IC50 was 36.1 µM.

As for `CCc1ccc(NC(=O)c2cc(C(F)(F)F)n(C)n2)cc1`, the IC50 is > 40 µM (inactive).

Turning to `O=C(c1ccncc1)N1CCN(CC2CC=CCC2)CC1` (configuration not stated), the IC50 is > 40 µM (inactive).

Turning to `Cc1ccc(CS(=O)(=O)c2cn(CC(=O)NCCc3ccccc3)c3ccccc23)cc1`, the IC50 is > 40 µM (inactive).

On to `CN(C)S(=O)(=O)c1ccc(NC(=O)CN2CCCc3ccccc32)cc1`, for which the IC50 was > 40 µM (inactive).

Regarding `O=C(c1ccccc1CN1CCOCC1)N1CCOCC2(C1)CN(c1ccc(F)cc1)C(=O)O2` (configuration not stated), the IC50 was > 40 µM (inactive).

On to `COc1ccccc1/C=C/C(=O)NC(Cc1ccccc1)c1nc2ccccc2[nH]1` (configuration not stated), for which the IC50 is > 40 µM (inactive).

For `CN1C(=O)COc2cc(-c3noc(C(=O)NCc4ccc(F)cc4)n3)ccc21`, the IC50 was 24.9 µM.

For the compound `Cn1cc(NC(=O)Nc2cccc(C(F)(F)F)c2)c2ccccc2c1=O`, the IC50 is 28.5 µM.

Regarding `CCCCCCCCCCCC1=C(O)C(=O)C=C(O)C1=O`, the concentration for half-maximal inhibition (IC50) is 2.44 µM.

In the case of `CCOc1ccc(CCNC(=O)Cn2c(-c3ccc(F)cc3)cc(C(C)=O)c2C)cc1OCC`, the IC50 was > 40 µM (inactive).

For the compound `O=c1cc(-c2ccc(O)c(O)c2)oc2cc(O[C@@H]3O[C@H](CO)[C@@H](O)[C@H](O)[C@H]3O)cc(O)c12`, the IC50 is 1.75 µM.

With `CCN(c1ccc(NC(=O)CSc2nnc(-c3ccccc3)n2-c2ccc(OC)c(OC)c2)cc1)C(C)C`, the IC50 was > 40 µM (inactive).

As to `Cc1ccnc(NS(=O)(=O)c2ccc(NC(=O)c3ccc(S(=O)(=O)N(C)Cc4ccccc4)cc3)cc2)n1`, the half-inhibitory concentration (IC50) was 35.4 µM.

Turning to `COc1ccc(-n2ccc(=O)c(-c3nc(-c4ccc(F)cc4)no3)n2)cc1`, the IC50 was > 40 µM (inactive).

As for `Nc1ccc(C(=O)OCC(=O)NC2CCCc3ccccc32)cc1[N+](=O)[O-]` (configuration not stated), the IC50 was 37.7 µM.

With `COc1ccc(-c2cc3c(=O)n(CC(=O)NCc4ccccc4)ncn3n2)cc1`, the IC50 is > 40 µM (inactive).

On to `COc1ccc(-c2nc(-c3cn(-c4ccccc4)nn3)no2)c(OC)c1`, for which the IC50 is > 40 µM (inactive).

For `COC(=O)c1ccc(C(=O)Nc2cc3ccccc3cc2NC(=O)c2ccc(C(=O)OC)cc2)cc1`, the IC50 was > 40 µM (inactive).

Consider `COc1c2nc3ccccc3oc-2cc(=O)c1OC`, for which the IC50 is > 40 µM (inactive).

With `COc1cccc2cc(C(=O)Nc3nc(-c4ccncc4)cs3)oc12`, the IC50 is 9.63 µM.

For `CCC(=O)Nc1nc2cc(NC(=O)Nc3cccc(C)c3)ccc2s1`, the half-inhibitory concentration (IC50) was 18.8 µM.

For the compound `O=C(CCn1c(=O)c2ccccc2n(Cc2ccc(F)cc2Cl)c1=O)NCc1ccco1`, the IC50 is 27.6 µM.

For the compound `COc1ccc(NC(=O)[C@H](C)NC(=O)c2cc3c(OC)cccc3[nH]2)cc1Cl`, the IC50 was 37.9 µM.

Consider `O=C(NCc1ccccc1)Nc1cccc2ccccc12`, for which the IC50 was > 40 µM (inactive).

`CC(=O)N1CCc2cc(S(=O)(=O)NC(Cc3ccccc3)C(=O)Nc3cccc(Cl)c3C)ccc21` (configuration not stated): the IC50 was 23.8 µM.

Take `COc1cc2cc3c(c(O)c2c(O)c1-c1c(OC)cc2cc4c(c(O)c2c1O)C(=O)OC1CC(C)OC41)C(=O)OC1CC(C)OC31` (configuration not stated): the half-inhibitory concentration (IC50) is 9.21 µM.

For `O=C(Cn1c(=O)n(CC2CCC(C(=O)NCCc3ccccc3)CC2)c(=O)c2ccccc21)NCc1ccco1` (configuration not stated), the concentration for half-maximal inhibition (IC50) is 22.7 µM.

For the compound `CC(CCc1ccccc1)NC(=O)Cn1c(=O)c2cccn2c2ccccc21` (configuration not stated), the IC50 was > 40 µM (inactive).

Turning to `CCCn1c(=O)c(-c2ccc(C(=O)NCc3ccc(OC)cc3)cc2)nc2cccnc21`, the IC50 is > 40 µM (inactive).

Regarding `Cc1ccc(CNCc2cc3c(-c4ccc(F)cc4)nn(-c4ccccc4)c3[nH]c2=O)cc1`, the IC50 is > 40 µM (inactive).

In the case of `COc1cc(Cl)c(NC(=O)C2Cc3ccccc3N2C(=O)c2ccccc2)c(OC)c1` (configuration not stated), the IC50 is 26.9 µM.

In the case of `C=C1C=C(CCC(=O)O)C(=O)OC1/C=C/C=C/C` (configuration not stated), the IC50 is 3.91 µM.

For the compound `CC(C)CC(=O)Nc1cc(F)c2nc(N3CCOCC3)ccc2c1`, the IC50 is > 40 µM (inactive).

For `CC[C@H](C)[C@H](NC(=O)[C@H]([C@@H](C)CC)N(C)C(C)=O)C(=O)N[C@H](C(=O)N[C@@H](CC(C)C)C(=O)C1(C)CO1)[C@@H](C)O` (some centres not stated), the IC50 is > 40 µM (inactive).

As for `Cc1cccc(N2C(=O)/C(=C\c3ccc4c(c3)OCCO4)c3ccccc3C2=O)c1`, the IC50 is > 40 µM (inactive).

As to `CCc1ccc(NC(=O)C(C)OC(=O)/C=C/c2ccc(S(=O)(=O)Nc3cccc(S(N)(=O)=O)c3)cc2)cc1` (configuration not stated), the IC50 is 21.7 µM.
